According to patent publication US20240174618A1, “SUBSTITUTED (2-HETEROARYLOXYPHENYL)SULFONATES, SALTS THEREOF AND THEIR USE AS HERBICIDAL AGENTS” (Bayer Aktiengesellschaft, priority 2021, published 2024):

What was measured:
Format in all cases: in vivo
[1] = test system: Digitaria sanguinalis (DIGSA); experiment: A. Herbicidal pre-emergence efficacy, DIGSA; conditions: scored visually after about 3 weeks vs untreated controls
Method in brief: (§1)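 Pre-emergence soil-surface spray in sandy loam pots, WP/EC in water plus 0.5% additive, 600 L/ha. Visual % damage rating after about 3 weeks in greenhouse vs. untreated; 0% = control-like, 100% = dead plants. Rates up to 1280 g/ha.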

[2] = test system: Poa annua (POAAN); experiment: A. Herbicidal pre-emergence efficacy, POAAN
Method in brief: as §1

[3] = test system: Setaria viridis (SETVI); experiment: A. Herbicidal pre-emergence efficacy, SETVI
Method in brief: as §1

[4] = test system: Stellaria media (STEME); experiment: A. Herbicidal pre-emergence efficacy, STEME
Method in brief: as §1

[5] = test system: Amaranthus retroflexus (AMARE); experiment: A. Herbicidal pre-emergence efficacy, AMARE
Method in brief: as §1

[6] = test system: Abutilon theophrasti (ABUTH); experiment: B. Herbicidal post-emergence efficacy, ABUTH; conditions: rated visually after about 3 weeks
Method in brief: (§2)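 Weeds grown in sandy loam in greenhouse pots, sprayed at one-leaf stage (2–3 weeks after sowing) with WP or EC formulations as aqueous suspension/emulsion plus 0.5% additive at 600 L/ha water, rates up to 1280 g/ha. Visual efficacy rated about 3 weeks later versus untreated controls (0% = like control, 100% = dead).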

[7] = test system: Echinochloa crus-galli (ECHCG); experiment: B. Herbicidal post-emergence efficacy, ECHCG; conditions: rated visually after about 3 weeks
Method in brief: as §2

[8] = test system: Kochia scoparia (KCHSC); experiment: B. Herbicidal post-emergence efficacy, KCHSC; conditions: 1280 g/ha
Method in brief: as §2

[9] = test system: Lolium rigidum (LOLRI); experiment: B. Herbicidal post-emergence efficacy, LOLRI; conditions: 1280 g/ha
Procedure: Seeds of mono- and dicotyledonous weed plants were placed in plastic pots in sandy loam soil (doubly sown with in each case one species of mono- or dicotyledonous weed plants per pot), covered with soil and cultivated in a greenhouse under controlled growth conditions. 2 to 3 weeks after sowing, the test plants were treated at the one-leaf stage. The compounds of the invention, formulated in the form of wettable powders (WP) or as emulsion concentrates (EC), were applied onto the green parts of the plants as aqueous suspension or emulsion with addition of 0.5% additive at a water application rate of 600 liters per hectare (converted). After the test plants had been kept in the greenhouse under optimum growth conditions for about 3 weeks, the activity of the preparations was rated visually in comparison to untreated controls.
For example, • 100% efficacy=plants have died, • 0% efficacy=like untreated control plants
Tables B1a to B12c below show the effects of selected inventive compounds of the general formula (I) according to table 1 on various harmful plants at an application rate corresponding to 1280 g/ha or less, which were obtained by the experimental procedure mentioned above.

[10] = test system: Poa annua (POAAN); experiment: B. Herbicidal post-emergence efficacy, POAAN
Method in brief: as §2

[11] = test system: Stellaria media (STEME); experiment: B. Herbicidal post-emergence efficacy, STEME
Method in brief: as §2

[12] = test system: Veronica persica (VERPE); experiment: B. Herbicidal post-emergence efficacy, VERPE
Method in brief: as §2

[13] = test system: Amaranthus retroflexus (AMARE); experiment: B. Herbicidal post-emergence efficacy, AMARE
Method in brief: as §2

For Cc1cccc(Oc2ncc(Cl)cn2)c1OS(=O)(=O)CC1CC1(Cl)Cl (centres unmarked) [Example I-76], the “Pre-emergence efficacy against DIGSA” value ([1]; 320 g/ha) was 90%, the “Pre-emergence efficacy against DIGSA” value ([1]; 1280 g/ha) was 90% and the “Pre-emergence efficacy against POAAN” value ([2]; dosage 320 g/ha) was 90%. For the same molecule, the “Pre-emergence efficacy against POAAN” value ([2]; dosage 1280 g/ha) was 90%, the “Pre-emergence efficacy against SETVI” value ([3]; dosage 320 g/ha) was 100% and the “Pre-emergence efficacy against SETVI” value ([3]; dosage 1280 g/ha) was 100%. For the same molecule, the “Pre-emergence efficacy against STEME” value ([4]; dosage 80 g/ha) was 90%, the “Pre-emergence efficacy against STEME” value ([4]; dosage 320 g/ha) was 90% and the “Pre-emergence efficacy against STEME” value ([4]; dosage 1280 g/ha) was 100%. The “Pre-emergence efficacy against AMARE in %” value ([5]; 320 g/ha) was 90%, the “Pre-emergence efficacy against AMARE in %” value ([5]; 1280 g/ha) was 100% and the “Post-emergence efficacy against ABUTH in %” value ([6]; 80 g/ha) was 90%. The “Post-emergence efficacy against ABUTH in %” value ([6]; 320 g/ha) was 90%, the “Post-emergence efficacy against ABUTH in %” value ([6]; 1280 g/ha) was 100% and the “Post-emergence efficacy against ECHCG in %” value ([7]; 320 g/ha) was 90%. For the same molecule, the “Post-emergence efficacy against ECHCG in %” value ([7]; 1280 g/ha) was 100%, the “Post-emergence efficacy against KCHSC” value [8] was 90% and the “Post-emergence efficacy against LOLRI” value [9] was 90%. The “Post-emergence efficacy against POAAN” value ([10]; 320 g/ha) was 90%, the “Post-emergence efficacy against POAAN” value ([10]; 1280 g/ha) was 100% and the “Post-emergence efficacy against STEME” value ([11]; 80 g/ha) was 90%. For the same molecule, the “Post-emergence efficacy against STEME” value ([11]; 320 g/ha) was 100%, the “Post-emergence efficacy against STEME” value ([11]; 1280 g/ha) was 100% and the “Post-emergence efficacy against VERPE” value ([12]; 80 g/ha) was 90%. The “Post-emergence efficacy against VERPE” value ([12]; 320 g/ha) was 100%, the “Post-emergence efficacy against VERPE” value ([12]; 1280 g/ha) was 100% and the “Post-emergence efficacy against AMARE” value ([13]; 80 g/ha) was 90%. For the same molecule, the “Post-emergence efficacy against AMARE” value ([13]; 320 g/ha) was 100% and the “Post-emergence efficacy against AMARE” value ([13]; 1280 g/ha) was 100%.
